Values after ≈ are worked out from the molar mass of the structure shown. “Also recorded” adds a separate entry of the source.
Columns and labels:
FASN protein = FASN protein level by Western blotting in A2780 cells; type: cell-based
EGFR mRNA = EGFR mRNA by RT-PCR and qRT-PCR in A2780 cells; type: cell-based, human
Method: RNA was extracted from the cells using TRI-REAGENT™ (Molecular Research Center, Cincinnati, Ohio) and subjected to reverse transcription—polymerase chain reaction (“RT-PCR”) using the TITAN ONE TUBE RT-PCR KIT™ system (Hoffmann-La Roche). […] Conditions for ErbB2 and GAPDH were: 50° C., 30 minutes; 94° C., 2 minutes; 10 cycles (94° C., 30 seconds; 51° C., 30 seconds; 68° C., 45 seconds); 25 cycles (94° C., 30 seconds; 51° C., 30 seconds; 68° C., 45 seconds +5 seconds autoextension) and 68° C., 7 minutes. […] Fragments were electrophoresed and stained with ethidium bromide.
(§1) Quantitative RT-PCR (“qRT-PCR”) was performed in the ABI PRISM 7000™ Sequence Detector (Applied Biosystems, Foster City, Calif.) using human EGFR, ErbB2, and FASN TaqMan® Gene Expression Assay systems (Applied Biosystems; Assay IDs: Hs00193306_m1, Hs00170433_m1, Hs00188012_m1) according to the manufacturer's instructions. β-actin and GAPDH (VIC™ and FAM labeled pre-developed TaqMan® Assay reagents, Applied Biosystems) were used as endogenous controls. EGFR, ErbB2, and FASN mRNA expression were calculated as described previously (Grunt, ibid).

ErbB2 mRNA = ErbB2 mRNA by RT-PCR and qRT-PCR in A2780 cells; type: cell-based, human
Excerpt: RNA was extracted from the cells using TRI-REAGENT™ (Molecular Research Center, Cincinnati, Ohio) and subjected to reverse transcription—polymerase chain reaction (“RT-PCR”) using the TITAN ONE TUBE RT-PCR KIT™ system (Hoffmann-La Roche). Primers were: EGFR: 5′-[…]-3′ (SEQ ID NO:1) (forward, E1S) 5′-[…]-3′ (SEQ ID NO:2) (reverse, E1A); ErbB-2: 5′-[…]-3′ (SEQ ID NO:3) (forward, E2S2), 5′-[…]-3′ (SEQ ID NO:4) (reverse, E2A2); GAPDH: 5′-[…]-3′ (SEQ ID NO:5) (forward, GAPDH3S), 5′-[…]-3′ (SEQ ID NO:6) (reverse, GAPDH3A). Conditions for reverse transcription and amplification of the EGFR coding sequence were: 50° C., 30 minutes; 94° C., 2 minutes; 10 cycles (94° C., 30 seconds; 64.9° C., 30 seconds; 68° C., 90 seconds); 30 cycles (94° C., 30 seconds; 64.9° C., 30 seconds; 68° C., 90 seconds +5 seconds autoextension) and 68° C., 7 minutes. Conditions for ErbB2 and GAPDH were: 50° C., 30 minutes; 94° C., 2 minutes; 10 cycles (94° C., 30 seconds; 51° C., 30 seconds; 68° C., 45 seconds); 25 cycles (94° C., 30 seconds; 51° C., 30 seconds; 68° C., 45 seconds +5 seconds autoextension) and 68° C., 7 minutes. DNA products had the following sizes: EGFR: 1452 bp, ErbB2: 900 bp, GAPDH: 488 bp. Fragments were electrophoresed and stained with ethidium bromide.
as §1

ErbB2 protein = test: Total and phosphorylated ErbB2 protein by Western blot in A2780 cells; type: cell-based
Method: (§2) Cells plated in culture media containing 5% fetal calf serum at a density of 2.6×10^5 (SKOV3) or 6×10^5 (A2780) in 60 mm dishes (Corning, Corning, N.Y.) were treated with FASN inhibitor C75, with small-molecule ErbB RTK inhibitors (RTKIs), with the MEK1/2 antagonist U0126 or with the PI3K inhibitor LY294002 for the indicated times and at various concentrations. In some experiments cells were stimulated for 5 or 10 min with 100 ng/ml EGF (Sigma) before lysis in RIPA buffer (Grunt et al., Biochem Biophys Res Commun 329:1253-1259, 2005). Proteins (20 μg/lane) were subjected to SDS-PAGE, blotted onto PVDF membranes and immunostained (see Grunt, ibid) using the following antibodies: 2 μg/ml goat anti-pEGFR(Tyr1173) (sc-12351), 1 μg/ml rabbit anti-ErbB2 (C-18) (sc-284), 1 μg/ml rabbit anti-pErbB2(Tyr1248) (sc-12352-R) (all from Santa Cruz Biotechnology Inc., Santa Cruz, Calif.), rabbit anti-EGFR 1:1,000 (2232), rabbit anti-AKT 1:1,000 (9272), rabbit anti-pAKT(Ser473) 1:1,000 (9271), rabbit anti-pAKT(Thr308) 1:1,000 (9275), rabbit anti-pERK1/2(Thr202/Tyr204) 1:1,000 (9101) (all from Cell Signaling Technology), rabbit anti-ERK1/2 1:3,000 (06-182, Upstate Biotechnology Inc., Lake Placid, N.Y.), 0.5 μg/ml mouse monoclonal anti-FASN (610963, BD Biosciences, San Jose, Calif.), or 0.67 μg/ml goat anti-human actin (1-19, sc-1616, Santa Cruz Biotechnology). Secondary antibodies were peroxidase-tagged donkey-anti-rabbit IgG (V795A, Promega, Madison, Wis.) or donkey-anti-goat IgG (sc-2020, Santa Cruz Biotechnology) at 1:15,000, respectively, or chicken anti-mouse IgG (sc-2954, Santa Cruz Biotechnology) at 1:10,000. Detection was performed by enhanced chemiluminescence.

AKT = AKT phosphorylation and expression by Western blotting in A2780 and SKOV3 cells; type: cell-based
Method: as §2, with “Secondary antibodies were peroxidase-tagged donkey-anti-rabbit IgG (V795A, Promega, Madison, Wis.) or donkey-anti-goat IgG (sc-2020, Santa Cruz Biotechnology) at 1:15,000, respectively, or chicken anti-mouse IgG (sc-2954, Santa Cruz Biotechnology) at 1:10,000. Detection was performed by enhanced chemiluminescence.” left out

ERK1/2 = ERK1/2 phosphorylation and expression by Western blotting in A2780 and SKOV3 cells; type: cell-based
Method: as §2, with “Secondary antibodies were peroxidase-tagged donkey-anti-rabbit IgG (V795A, Promega, Madison, Wis.) or donkey-anti-goat IgG (sc-2020, Santa Cruz Biotechnology) at 1:15,000, respectively, or chicken anti-mouse IgG (sc-2954, Santa Cruz Biotechnology) at 1:10,000. Detection was performed by enhanced chemiluminescence.” left out

C=C1C(=O)OC(CCCCCCCC)C1C(=O)O (stereo not shown) [C75, tetrahydro-3-methylene-2-oxo-5-n-octyl-4-furancarboxylic acid]
IT50, FASN protein (FASN protein): 40 h | IC50 (FASN protein; Homo sapiens, read-out: IC50, down-regulation of FASN protein): 4.15 µg/mL (≈ 16.3 µM) | FASN protein expression, effect in words (FASN protein; b102: within three days, pelitinib at doses as low as 3 μM): shut-down | EGFR mRNA, effect in words (EGFR mRNA): slowly and concordantly reduces | IC50 (EGFR mRNA; Homo sapiens, 72 h, after 3 days, read-out: IC50, down-regulation of EGFR mRNA): 6.5 µg/mL (≈ 25.6 µM) | IT50, EGFR mRNA (EGFR mRNA; at 7 μg/ml): about 29 hours | ErbB2 mRNA, effect in words (ErbB2 mRNA): not affected; also recorded: failed to diminish | phosphorylated ErbB2 (pErbB2), effect in words (ErbB2 protein): downregulates; also recorded: deprivation | total ErbB2 protein, effect in words (ErbB2 protein): downregulates; also recorded: deprivation | phosphorylation of AKT (Ser473, Thr308), effect in words (AKT): dose-dependently inhibits | total AKT protein level, effect in words (AKT; C75 at high concentrations): slightly affects | pERK1/2 levels, effect in words (ERK1/2): dose-dependently increase | total ERK1/2 levels, effect in words (ERK1/2): concurrently decline
